{
  "source": "patent US4087561A",
  "about": "“Control of nitrosamine formation in nitride cured meat with 1,2,3,4-tetrahydro-quinoline compounds” (Canada Packers Limited, priority 1975, dated 1978)",
  "key": {"[1]": {"conditions": "cited from earlier work"}, "[2]": {"assay": "Volatile nitrosamine content of cook-out fat from fried nitrite-cured bacon slices streaked with test compound in soya oil", "conditions": "for nitrosamine content of cook-out fat from the test sample: 100 ppm on bacon slices, control sample 15 ppb; for nitrosamine content of the fried meat: inferred from cook-out fat content", "experimental": "A portion of the foregoing product was dissolved in winterized soya oil to provide a 4.5% concentration and the resulting solution was streaked on bacon slices, which had undergone a conventional nitrite cure and plant processing, in quantities providing levels of 1,2,3,4-tetrahydro-2,2,4-trimethyl-6-ethoxyquinoline of from 5 ppm to 100 ppm in the meat. Control slices of bacon were streaked with the oil alone. The bacon slices were fried under standardized conditions and the cook-out fat was analyzed for volatile nitrosamine content.\nSince the analytical means available are not accurate below about 3 ppb (parts per billion), it will be seen that at levels of about 20 parts per million and greater of the test compound in the meat the amount of nitrosamines in the cook-out fat was reduced below the accurately determinable level.\nA portion of the 1,2,3,4-tetrahydro-2,4-diethyl-2-methyl-6-methoxyquinolineprepared as above was dissolved in winterized soya oil (4.5% concentration) and the resulting solution was streaked on nitrite cured, plant processed bacon slices at a level of 100 ppm in the meat. Control slices of bacon received oil alone. The bacon slices were fried and the cook-out fat was analyzed for volatile nitrosamine content as in Example 1."}, "[3]": {"assay": "Volatile nitrosamines in cook-out fat of fried bacon cured with pumping pickle containing test compound", "conditions": "150 mg = 50 ppm, in Tween 60, control sample 21 ppb", "description": "This example is representative of the use of compounds of the general formula given above in a pumping pickle.\nA single pork belly (13.2 lb) was cut along the short dimension into two equal portions. Production pickle (300g), of a composition which has been generally described above, was pumped into one portion to be used as control. The other half was pumped with the same production pickle (300g) to which 1,2,3,4-tetrahydro-2,2,4-trimethyl-6-ethoxyquinoline, prepared as described in Example 1, (150 mg .ident. 50 ppm) in Tween 60 (500 mg) had been dispersed. Both portions were subsequently smoked, chilled, sliced, and packaged normally. The samples were then analyzed for nitrite content. The amount of nitrite found just before frying was 75 ppm in the control sample and 73 ppm in the test sample.\nEach sample of the bacon was then fried under standard frying conditions and the cook-out fat analyzed for volatile nitrosamines."}, "[4]": {"assay": "Control of nitrosamine formation in nitrite cured meat (general statements)"}, "[5]": {"assay": "Stability of the compound", "format": "physicochemical"}},
  "data": [
    {"smiles": "CN(C)N=O", "note": "[dimethylnitrosamine]", "values": [
      {"measurement": "carcinogenicity in tests on experimental animals", "setting": "[1]", "result": "carcinogenic"}
    ]},
    {"smiles": "CCOc1ccc2c(c1)C(C)CC(C)(CC(C)C)N2", "note": "(stereo not shown) [1,2,3,4-tetrahydro-2,4-dimethyl-2-isobutyl-6-ethoxyquinoline]", "values": [
      {"measurement": "nitrosamine content of cook-out fat from the test sample", "setting": "[2]", "result": 0.6, "unit": "ppb"}
    ]},
    {"smiles": "CCOc1ccc2c(c1)C(CC)CC(C)(CC)N2", "note": "(stereo not shown) [1,2,3,4-tetrahydro-2,4-diethyl-2-methyl-6-ethoxyquinoline]", "values": [
      {"measurement": "nitrosamine content of cook-out fat from the test sample", "setting": "[2]", "result": "zero"}
    ]},
    {"smiles": "CCOc1ccc2c(c1)C(C)CC(C)(C)N2", "note": "(stereo not shown) [1,2,3,4-tetrahydro-2,2,4-trimethyl-6-ethoxyquinoline]", "values": [
      {"measurement": "Nitrosamines in cook-out fat, test product", "setting": "[2]; Table I sample 1, 100 ppm in meat, control product 29 ppb", "result": 0, "unit": "ppb"},
      {"measurement": "Nitrosamines in cook-out fat, test product", "setting": "[2]; Table I sample 2, 80 ppm in meat, control product 19 ppb", "result": 2, "unit": "ppb"},
      {"measurement": "Nitrosamines in cook-out fat, test product", "setting": "[2]; Table I sample 3, 40 ppm in meat, control product 19 ppb", "result": 3, "unit": "ppb"},
      {"measurement": "Nitrosamines in cook-out fat, test product", "setting": "[2]; Table I sample 4, 20 ppm in meat, control product 19 ppb", "result": 1, "unit": "ppb"},
      {"measurement": "Nitrosamines in cook-out fat, test product", "setting": "[2]; Table I sample 5, 10 ppm in meat, control product 19 ppb", "result": 0, "unit": "ppb"},
      {"measurement": "Nitrosamines in cook-out fat, test product", "setting": "[2]; Table I sample 6, 10 ppm in meat, control product 18 ppb", "result": 2, "unit": "ppb"},
      {"measurement": "Nitrosamines in cook-out fat, test product", "setting": "[2]; Table I sample 7, 5 ppm in meat, control product 19 ppb", "result": 5, "unit": "ppb"},
      {"measurement": "Nitrosamines in cook-out fat, test product", "setting": "[2]; Table I sample 8, 20 ppm in meat, control product 31 ppb", "result": 0, "unit": "ppb"},
      {"measurement": "Nitrosamines in cook-out fat, test product", "setting": "[2]; Table I sample 9, 10 ppm in meat, control product 31 ppb", "result": 10, "unit": "ppb"},
      {"measurement": "Nitrosamines in cook-out fat, test product", "setting": "[2]; Table I sample 10, 5 ppm in meat, control product 31 ppb", "result": 22, "unit": "ppb"},
      {"measurement": "Nitrosamines in cook-out fat, test product", "setting": "[2]; Table I sample 11, 20 ppm in meat, control product 36 ppb", "result": 5, "unit": "ppb"},
      {"measurement": "Nitrosamines in cook-out fat, test product", "setting": "[2]; Table I sample 12, 10 ppm in meat, control product 36 ppb", "result": 8, "unit": "ppb"},
      {"measurement": "Nitrosamines in cook-out fat, test product", "setting": "[2]; Table I sample 13, 5 ppm in meat, control product 36 ppb", "result": 6, "unit": "ppb"},
      {"measurement": "Nitrosamines in cook-out fat, test product", "setting": "[2]; Table I sample 14, 100 ppm in meat, control product 49 ppb", "result": 1, "unit": "ppb"},
      {"measurement": "Nitrosamines in cook-out fat, test product", "setting": "[2]; Table I sample 15, 20 ppm in meat, control product 39 ppb", "result": 3, "unit": "ppb"},
      {"measurement": "Nitrosamines in cook-out fat, test product", "setting": "[2]; Table I sample 16, 10 ppm in meat, control product 39 ppb", "result": 15, "unit": "ppb"},
      {"measurement": "Nitrosamines in cook-out fat, test product", "setting": "[2]; Table I sample 17, 20 ppm in meat, control product 25 ppb", "result": 2, "unit": "ppb"},
      {"measurement": "Nitrosamines in cook-out fat, test product", "setting": "[2]; Table I sample 18, 10 ppm in meat, control product 25 ppb", "result": 4, "unit": "ppb"},
      {"measurement": "nitrosamine content of the fried meat", "setting": "[2]", "result": "virtually eliminated"},
      {"measurement": "reduction in the amount of nitrosamines formed", "setting": "[2]; lesser amounts (below about 20 ppm in meat)", "result": "significant reduction in the amount of nitrosamines formed, in some instances reducing the nitrosamines below the accurately detectable level"},
      {"measurement": "amount of nitrosamines in the cook-out fat", "setting": "[2]; levels of about 20 ppm and greater in meat, reduced below the accurately determinable level (about 3 ppb)", "result": "below 3 ppb"},
      {"measurement": "volatile nitrosamines in cook-out fat of test sample", "setting": "[3]", "result": "did not show any detectable nitrosamine"},
      {"measurement": "effectiveness in the control of nitrosamines in nitrite cured meats, compared with ethoxyquin", "setting": "[4]", "result": "equally effective"},
      {"measurement": "stability at room temperature", "setting": "[5]; crystalline solid, room temperature", "result": "quite stable at room temperature"}
    ]},
    {"smiles": "CCC1CC(C)(CC)Nc2ccc(OC)cc21", "note": "(stereo not shown) [1,2,3,4-tetrahydro-2,4-diethyl-2-methyl-6-methoxyquinoline]", "values": [
      {"measurement": "Nitrosamines in cook-out fat, test product", "setting": "[2]; Table II sample 1, 100 ppm in meat, control product 51 ppb", "result": 2, "unit": "ppb"},
      {"measurement": "Nitrosamines in cook-out fat, test product", "setting": "[2]; Table II sample 2, 100 ppm in meat, control product 15 ppb", "result": 0, "unit": "ppb"},
      {"measurement": "nitrosamine content of the cook-out fat", "setting": "[2]; each test sample of Table II, 100 ppm in meat, reduced below the accurately detectable level", "result": "< 3", "unit": "ppb"},
      {"measurement": "nitrosamine content of the fried meat", "setting": "[2]", "result": "virtually free of such substances"}
    ]},
    {"smiles": "O=NN1CCCC1", "note": "[N-nitrosopyrrolidine]", "values": [
      {"measurement": "carcinogenicity in tests on experimental animals", "setting": "[1]", "result": "carcinogenic"}
    ]},
    {"smiles": "CCOc1ccc2c(c1)C(C)=CC(C)(C)N2", "note": "[ethoxyquin, 1,2-dihydro-2,2,4-trimethyl-6-ethoxyquinoline, reference compound]", "values": [
      {"measurement": "stability in the presence of air (darkening)", "setting": "[5]; oily yellow liquid, presence of air", "result": "rather quickly turns dark in the presence of air"}
    ]},
    {"smiles": "COc1ccc2c(c1)CCCN2", "note": "[1,2,3,4-tetrahydro-6-methoxyquinoline]", "values": [
      {"measurement": "nitrosamine content of cook-out fat from the test sample", "setting": "[2]", "result": 0.6, "unit": "ppb"}
    ]}
  ]
}
